From patent US10662228B2 (priority 2014, dated 2020)

Tested on: potassium ion channel current of the DRG neurons
Format: cell-based, SD rats
Details: 5 mM

For `Nc1ccncc1` [4AP, 4-aminopyridine], the Current inhibition rate was 0.338 and the “Current recorded after loading” value was 0.9766 nA.
